Counter-ions that a name gives are not always drawn. Like-named read-outs stand apart in the source and are kept apart here. One block for each compound: values may come before it.
Assays:
[1] = target: human FLAP (Homo sapiens (Human), UniProt P20292); test: FLAP binding assay (HTRF format)
Method in brief: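 Read-out is the HTRF ratio. Each reported figure averages two assay plates on which samples were tested in duplicate.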

[2] = system: leukotriene pathway in human whole blood (LTB4 levels); test: Human whole blood assay (A23187-stimulated LTB4); format: cell-based; settings: Homo sapiens, read-out: LTB4 IC50 1:1
Method in brief: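 Heparinised human whole blood, diluted 1:1 in RPMI, was pre-incubated with test compounds for 15 min at 37° Celsius, then stimulated with A23187 (7 μg/mL) for 30 min at 37° Celsius. Plasma LTB4 was measured by immunoassay kit; IC50 from 4-parameter fit; single replicate, at least one healthy donor.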

[3] = human whole blood diluted 1:1, A23187-stimulated
[4] = human FLAP wild type, HTRF format, average of two plates, duplicates
[5] = human whole blood diluted 1:1 in RPMI, A23187-stimulated LTB4
[6] = read-out: FLAP Binding wild type HTRF Ki

Sequence of human FLAP (P20292 whole entry): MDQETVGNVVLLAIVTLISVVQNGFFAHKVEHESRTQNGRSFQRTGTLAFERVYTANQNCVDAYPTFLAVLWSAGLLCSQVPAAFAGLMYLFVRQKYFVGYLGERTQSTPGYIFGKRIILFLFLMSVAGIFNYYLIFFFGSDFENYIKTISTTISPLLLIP

SMILES: CC(C)(O)Cn1cc(-c2ccccc2-c2ccc(-c3cnc(N)cn3)c(F)c2)cn1 [Example 851, 1-{4-[4′-(5-Aminopyrazin-2-yl)-3′-fluorobiphenyl-2-yl]-1H-pyrazol-1-yl}-2-methylpropan-2-ol]
Ki ([1]; wild type FLAP, HTRF format): 32.6 nM
IC50 [2, 3]: 359 nM

SMILES: Nc1cnc(-c2ccc(-c3ccccc3CSc3ccc(N)nn3)cc2F)cn1 [Example 240, 6-(((4′-(5-Aminopyrazin-2-yl)-3′-fluoro-[1,1′-biphenyl]-2-yl)methyl)thio)pyridazin-3-amine hydrochloride]
Ki [1, 4]: 2 nM
IC50 [2, 5]: 21 nM

SMILES: CS(=O)(=O)c1cc(C(F)(F)F)ccc1-c1ccc(-c2cnc(N)nc2)c(F)c1 [Example 323, 5-[3-Fluoro-2′-(methylsulfonyl)-4′-(trifluoromethyl)biphenyl-4-yl]pyrimidin-2-amine]
Ki [1, 4]: 770 nM
IC50 [2, 5]: 6640 nM

SMILES: Nc1ncc(-c2ccc(-c3ccccc3S(=O)(=O)N[C@H](c3ccccc3)C(F)(F)F)cc2F)cn1 [Example 291, 4′-(2-Aminopyrimidin-5-yl)-3′-fluoro-N-[(1R)-2,2,2-trifluoro-1-phenylethyl]biphenyl-2-sulfonamide trifluoroacetic acid salt]
Ki [1, 6]: 7 nM
IC50 [2, 5]: 421 nM

SMILES: CC(C)(C)NS(=O)(=O)c1ccccc1-c1ccc(-c2cnc(N)cn2)c(F)c1F [Example 462, 4′-(5-Aminopyrazin-2-yl)-N-tert-butyl-2′,3′-difluorobiphenyl-2-sulfonamide]
Ki ([1]; wild type FLAP, HTRF format): 2 nM
IC50 [2, 3]: 62 nM

SMILES: CC(C)(C)NS(=O)(=O)c1ccccc1-c1ccc(-c2ccc(N)nn2)c(F)c1 [Example 417, 4′-(6-Aminopyridazin-3-yl)-N-tert-butyl-3′-fluorobiphenyl-2-sulfonamide]
Ki ([1]; wild type FLAP, HTRF format): 108 nM
IC50 [2, 3]: 726 nM

SMILES: Nc1ncc(-c2ccc(-c3ccccc3S(=O)(=O)N3CC(O)(C(F)(F)F)C3)cc2F)cn1 [Example 315, 1-((4′-(2-Aminopyrimidin-5-yl)-3′-fluoro-[1,1′-biphenyl]-2-yl)sulfonyl)-3-(trifluoromethyl)azetidin-3-ol]
Ki [1, 6]: 1 nM
IC50 [2, 5]: 27 nM

SMILES: C[C@H](NS(=O)(=O)c1ccccc1-c1ccc(-c2cnc(N)nc2)c(F)c1)C(F)(F)F [Example 297, 4′-(2-Aminopyrimidin-5-yl)-3′-fluoro-N-[(1S)-2,2,2-trifluoro-1-methylethyl]biphenyl-2-sulfonamide trifluoroacetic acid salt]
Ki [1, 6]: 5 nM
IC50 [2, 5]: 45 nM

SMILES: Nc1cnc(-c2ccc(-c3ccccc3Sc3cncc(N)n3)cc2F)cn1 [Example 742, 5-{2′-[(6-Aminopyrazin-2-yl)sulfanyl]-3-fluorobiphenyl-4-yl}pyrazin-2-amine]
Ki ([1]; wild type FLAP, HTRF format): 2.9 nM
IC50 [2, 3]: 25.7 nM

SMILES: CC(C)(C)S(=O)(=O)c1ncccc1-c1ccc(-c2cnc(N)nc2)c(F)c1 [Example 811, 5-(4-(2-(tert-Butylsulfonyl)pyridin-3-yl)-2-fluorophenyl)pyrimidin-2-amine formic acid salt]
Ki [1, 6]: 315 nM
IC50 [2, 3]: 541 nM

SMILES: Nc1ncc(-c2ccc(-c3cccnc3S(=O)(=O)C3CCCCC3)cc2F)cn1 [Example 807, 5-(4-(2-(Cyclohexlsulfonyl)pyridin-3-yl)-2-fluorophenyl)pyrimidin-2-amine hydrochloride]
Ki [1, 6]: 5.8 nM
IC50 [2, 3]: 72.2 nM

SMILES: Nc1ncc(-c2ccc(-c3ccc(C(F)(F)F)cc3CN3CCOCC3)cn2)cn1 [Example 676, 5-{5-[2-(Morpholin-4-ylmethyl)-4-(trifluoromethyl)phenyl]pyridin-2-yl}pyrimidin-2-amine]
Ki ([1]; wild type FLAP, HTRF format): 234 nM
IC50 [2, 3]: 3710 nM

SMILES: Nc1cnc(-c2ccc(-c3ccccc3S(=O)(=O)NC[C@H](O)CO)cc2F)cn1 [Example 104, (S)-4′-(5-Aminopyrazin-2-yl)-N-(2,3-dihydroxypropyl)-3′-fluoro-[1,1′-biphenyl]-2-sulfonamide]
Ki [1, 4]: 12 nM
IC50 [2, 5]: > 1000 nM

SMILES: C[C@H]1CNCCN1S(=O)(=O)c1ccccc1-c1ccc(-c2cnc(N)cn2)c(F)c1 [Example 144, (S)-5-(3-Fluoro-2′-((2-methylpiperazin-1-yl)sulfonyl)-[1,1′-biphenyl]-4-yl)pyrazin-2-amine]
Ki [1, 4]: 15 nM
IC50 [2, 5]: 97 nM

SMILES: Nc1cnc(-c2ccc(-c3ccccc3S(=O)(=O)N3CC(F)(F)C3)cc2F)cn1 [Example 52, 5-{2′-[(3,3-Difluoroazetidin-1-yl)sulfonyl]-3-fluorobiphenyl-4-yl}pyrazin-2-amine]
Ki [1, 4]: 4 nM
IC50 [2, 5]: 155 nM

SMILES: C[C@@H](O)CNS(=O)(=O)c1ccccc1-c1ccc(-c2cnc(N)nc2)c(F)c1 [Example 278, 4′-(2-Aminopyrimidin-5-yl)-3′-fluoro-N-[(2R)-2-hydroxypropyl]biphenyl-2-sulfonamide-trifluoroacetic acid salt]
Ki [1, 4]: 36 nM
IC50 [2, 5]: 95 nM

SMILES: CC(C)(CO)NS(=O)(=O)c1ccccc1-c1ccc(-c2cnc(N)nc2)c(F)c1 [Example 280, 4′-(2-Aminopyrimidin-5-yl)-3′-fluoro-N-(2-hydroxy-1,1-dimethylethyl)biphenyl-2-sulfonamide trifluoroacetic acid salt]
Ki [1, 6]: 3 nM
IC50 [2, 5]: 87 nM

SMILES: Cc1nccc(Oc2ccccc2-c2ccc(-c3cnc(N)nc3)c(F)c2)n1 [Example 542, 5-{3-Fluoro-2′-[(2-methylpyrimidin-4-yl)oxy]penyl-4-yl}pyrimidin-2-amine]
Ki ([1]; wild type FLAP, HTRF format): 107 nM
IC50 [2, 3]: 311 nM

Continued, values first:

Ki [1, 4]: 42 nM
IC50 [2, 5]: 1040 nM
SMILES: Nc1ncc(-c2ccc(-c3ccccc3S(=O)(=O)NC3CC3)cc2F)cn1 [Example 284, 4′-(2-Aminopyrimidin-5-yl)-N-cyclopropyl-3′-fluorobiphenyl-2-sulfonamide trifluoroacetic acid salt]

Ki [1, 4]: 3 nM
IC50 [2, 5]: 22 nM
SMILES: Nc1cnc(-c2ccc(-c3ccccc3S(=O)(=O)N3CC(O)C3)cc2F)cn1 [Example 119, 1-{[4′-(5-Aminopyrazin-2-yl)-3′-fluorobiphenyl-2-yl]sulfonyl}azetidin-3-ol]

Ki [1, 4]: 1 nM
IC50 [2, 5]: 46 nM
SMILES: CC(CO)NS(=O)(=O)c1ccccc1-c1ccc(-c2cnc3[nH]ccc3n2)c(F)c1 (stereo in doubt) [Example 380, 3′-Fluoro-N-[(1S)-2-hydroxy-1-methylethyl]-4′-(5H-pyrrolo[2,3-b]pyrazin-2-yl)biphenyl-2-sulfonamide]

Ki [1, 4]: 3 nM
IC50 [2, 5]: 238 nM
SMILES: Nc1cnc(-c2ccc(-c3ccccc3S(=O)(=O)N3CCCCCC3)cc2F)cn1 [Example 53, 5-[2′-(Azepan-1-ylsulfonyl)-3-fluorobiphenyl-4-yl]pyrazin-2-amine]

Ki [1, 4]: 2 nM
IC50 [2, 5]: 14 nM
SMILES: CC(C)CNS(=O)(=O)c1ccccc1-c1ccc(-c2cnc(N)cn2)c(F)c1 [Example 7, 4′-(5-Aminopyrazin-2-yl)-3′-fluoro-N-(2-methylpropyl)biphenyl-2-sulfonamide]

Ki [1, 4]: 3 nM
IC50 [2, 5]: 10 nM
SMILES: Nc1cnc(-c2ccc(-c3ccccc3S(=O)(=O)N3CCS(=O)(=O)CC3)cc2F)cn1 [Example 45, 5-{2′-[(1,1-Dioxidothiomorpholin-4-yl)sulfonyl]-3-fluorobiphenyl-4-yl}pyrazin-2-amine]

Ki ([1]; wild type FLAP, HTRF format): 40.5 nM
IC50 [2, 3]: 47.5 nM
SMILES: Nc1ncc(-c2ccc(-c3cccnc3S(=O)(=O)C3CCS(=O)(=O)CC3)cc2F)cn1 [Example 819, 4-((3-(4-(2-aminopyrimidin-5-yl)-3-fluorophenyl)pyridine-2-yl)sulfonyl)tetrahydro-2H-thiopyran 1,1-dioxide]

Ki [1, 4]: 17 nM
IC50 [2, 5]: 297 nM
SMILES: Nc1ccc(-c2ccc(-c3ccccc3S(=O)(=O)N[C@@H](c3ccccc3)C(F)(F)F)cc2F)cn1 [Example 351, (S)-4′-(6-Aminopyridin-3-yl)-3′-fluoro-N-(2,2,2-trifluoro-1-phenylethyl)-[1,1′-biphenyl]-2-sulfonamide]

Ki [1, 4]: 29 nM
IC50 [2, 5]: 10000 nM
SMILES: CCN1CCCC[C@@H](NS(=O)(=O)c2ccccc2-c2ccc(-c3cnc(N)cn3)c(F)c2)C1=O [Example 27, (S)-4′-(5-Aminopyrazin-2-yl)-N-[(3S)-1-ethyl-2-oxoazepan-3-yl]-3′-fluorobiphenyl-2-sulfonamide]

Ki [1, 4]: 38 nM
IC50 [2, 5]: 77 nM
SMILES: N#CCCNS(=O)(=O)c1ccccc1-c1ccc(-c2cnc(N)nc2)c(F)c1 [Example 250, 4′-(2-Aminopyrimidin-5-yl)-N-(2-cyanoethyl)-3′-fluorobiphenyl-2-sulfonamide]

Ki [1, 4]: 12 nM
IC50 [2, 5]: 138 nM
SMILES: Nc1ncc(-c2ccc(-c3ccccc3Sc3ccncn3)cc2F)cn1 [Example 214, 5-[3-Fluoro-2′-(pyrimidin-4-ylsulfanyl)biphenyl-4-yl]pyrimidin-2-amine formate salt]

Ki [1, 4]: 4 nM
IC50 [2, 5]: 20 nM
SMILES: N#CCCN(C1CC1)S(=O)(=O)c1ccccc1-c1ccc(-c2cnc(N)cn2)c(F)c1 [Example 172, 4′-(5-Aminopyrazin-2-yl)-N-(2-cyanoethyl)-N-cyclopropyl-3′-fluorobiphenyl-2-sulfonamide]

Ki ([1]; wild type FLAP, HTRF format): 78.8 nM
IC50 [2, 3]: 981 nM
SMILES: N#CCOc1ccccc1-c1ccc(-c2cnc(N)cn2)c(F)c1 [Example 642, {[4′-(5-Aminopyrazin-2-yl)-3′-fluorobiphenyl-2-yl]oxy}acetonitrile]

Ki ([1]; wild type FLAP, HTRF format): 27.6 nM
IC50 [2, 3]: > 10000 nM
SMILES: Nc1cnc(-c2ccc(-c3ccc(C(F)(F)F)cc3C(=O)O)cc2F)cn1 [Example 603, 4′-(5-Aminopyrazin-2-yl)-3′-fluoro-4-(trifluoromethyl)biphenyl-2-carboxylic acid]

Ki [1, 4]: 205 nM
IC50 [2, 5]: 219 nM
SMILES: CNS(=O)(=O)Cc1ccccc1-c1ccc(-c2cnc(N)cn2)c(F)c1 [Example 220, 1-[4′-(5-Aminopyrazin-2-yl)-3′-fluorobiphenyl-2-yl]-N-methylmethanesulfonamide formic acid salt]
